Laboratory results taken from patent publication US20060247250A1 (TargeGen, Inc., priority 2005, published 2006).

Legend:
Format in all cases: biochemical
VEGFR2 = molecular target: T1, VEGFR2 (Homo sapiens, UniProt P35968); experiment: VEGFR2 kinase assay, residual ATP luminescence; details: VEGFR2, poly(glu4tyr), 1.5 uM ATP, 60 minutes at 37 C; read-out: Vegfr IC50
T1 construct: purchased Cell Signaling/ProQinase
Procedure: (§1) The ability of compounds of the present invention to inhibit the activity of three groups of kinases was tested. Kinases tested included the src family (primarily src and yes), the angiogenic growth factors receptors (FGFR1, PDGFRb and VEGFR2) and the ephrin, EphB4. All kinase reactions were conducted in 96-well plates with a final reaction volume of 50 ul.
(§2) FGFR1 and VEGFR2 kinase assays were similarly performed. FGFR1 (76 ng/well, Panvera/Invitrogen) was combined with 12.5 mg/ml poly(glu4tyr) (Sigma) and 2.5 uM ATP. VEGFR2 (14.1 U/well, Cell Signaling/ProQinase) was used with 0.3 mg/ml poly(glu4tyr) and 1.5 uM ATP. Both were incubated for 60 minutes at 37 C, and the residual ATP was measured via luminescence, per the procedure described above.

FGFR1 = molecular target: T2, FGFR1 (Homo sapiens, UniProt P11362); experiment: FGFR1 kinase assay, residual ATP luminescence; details: poly(glu4tyr), 2.5 uM ATP, 60 minutes at 37 C
T2 construct: purchased Panvera/Invitrogen
Procedure: as §1, §2

PDGFRb = molecular target: T3, PDGFRb (Homo sapiens, UniProt P09619); experiment: PDGFRb kinase assay, residual ATP luminescence; details: PTK2 peptide, 500 nM ATP, 60 minutes at 37 C; read-out: Pdgfrβ IC50
T3 construct: purchased Panvera/Invitrogen
Procedure: as §1
PDGFRb (0.16 ug/well, Panvera/Invitrogen) 500 nM ATP and the PTK2 peptide (700 uM) were combined with compound and reaction buffer as noted above for src. The reaction was incubated for 60 minutes at 37 C, and the residual ATP concentration was determined using the luciferase-based technique also noted above.

human Yes = molecular target: T4, human Yes (Homo sapiens, UniProt P07947); experiment: Yes kinase inhibition, luciferase-based residual ATP (KinaseGlo); details: recombinant human Yes, ATP 3 μM, PTK2 substrate, 90 minutes at room temperature
T4 construct: purchased Panvera/Invitrogen
Procedure: as §1
(§3) Recombinant human c-Src or Yes (28 ng/well, Panvera/Invitrogen, Madison Wis.), ATP (3 μM), a tyrosine kinase substrate (PTK2, 250 μM, Promega Corp., Madison Wis.), and test agents (at concentrations ranging from about 1 nM/l to about 100 μM/1), in the presence of Src kinase reaction buffer (Upstate USA, Lake Placid N.Y.). After reacting for about 90 minutes at room temperature, residual ATP was determined using a luciferase-based assay (KinaseGlo, Promega Corp.) as a measure of kinase activity. Data from four wells were then averaged and used to determine IC50 values for the test compounds (Prism software package, GraphPad Software, San Diego Calif.).

human c-Src = molecular target: T5, human c-Src (Homo sapiens, UniProt P12931); experiment: Src kinase inhibition, luciferase-based residual ATP (KinaseGlo); details: recombinant human c-Src, ATP 3 μM, PTK2 substrate, 90 minutes at room temperature
T5 construct: purchased Panvera/Invitrogen
Procedure: as §1, §3

EphB4 = molecular target: T6, EphB4 (Homo sapiens, UniProt P54760); experiment: EphB4 kinase assay, residual ATP luminescence; details: poly(glu4tyr), 6 uM ATP, 60 minutes at 37 C
T6 construct: purchased Upstate
T6 sequence (P54760 16-987): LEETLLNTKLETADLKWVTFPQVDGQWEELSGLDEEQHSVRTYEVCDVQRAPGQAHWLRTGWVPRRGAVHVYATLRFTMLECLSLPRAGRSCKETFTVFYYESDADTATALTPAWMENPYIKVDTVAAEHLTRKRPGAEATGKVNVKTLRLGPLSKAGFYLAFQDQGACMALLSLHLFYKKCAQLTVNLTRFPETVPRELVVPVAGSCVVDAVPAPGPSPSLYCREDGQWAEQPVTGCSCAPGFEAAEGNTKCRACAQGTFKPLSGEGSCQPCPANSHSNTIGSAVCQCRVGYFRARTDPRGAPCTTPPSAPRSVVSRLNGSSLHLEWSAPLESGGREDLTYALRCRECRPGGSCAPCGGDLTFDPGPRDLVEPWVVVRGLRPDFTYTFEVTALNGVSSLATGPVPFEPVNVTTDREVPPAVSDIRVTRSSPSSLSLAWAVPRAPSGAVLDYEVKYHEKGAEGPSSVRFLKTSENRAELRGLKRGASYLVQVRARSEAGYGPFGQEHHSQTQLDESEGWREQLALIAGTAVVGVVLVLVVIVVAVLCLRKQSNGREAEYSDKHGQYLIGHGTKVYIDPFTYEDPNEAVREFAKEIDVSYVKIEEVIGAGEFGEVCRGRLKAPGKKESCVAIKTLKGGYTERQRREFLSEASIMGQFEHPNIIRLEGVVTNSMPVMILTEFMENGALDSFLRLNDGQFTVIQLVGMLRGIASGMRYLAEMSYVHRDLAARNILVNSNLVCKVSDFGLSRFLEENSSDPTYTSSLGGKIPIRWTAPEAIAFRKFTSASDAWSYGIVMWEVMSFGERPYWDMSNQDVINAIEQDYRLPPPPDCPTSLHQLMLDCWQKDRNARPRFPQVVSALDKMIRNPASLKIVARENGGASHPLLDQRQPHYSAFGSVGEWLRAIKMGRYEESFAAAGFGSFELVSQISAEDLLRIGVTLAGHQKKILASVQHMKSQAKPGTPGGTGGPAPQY
Procedure: as §1
EphB4 kinase activity was similarly measured, using the luciferase-based technique described above. 28.9 mU/well EphB4 (Upstate) was reacted with 1 mg/ml poly(glu4tyr), 6 uM ATP and test reagents. The reaction was incubated for 60 minutes at 37 C and the residual ATP concentration was measured.

T4 sequence (P07947 whole entry): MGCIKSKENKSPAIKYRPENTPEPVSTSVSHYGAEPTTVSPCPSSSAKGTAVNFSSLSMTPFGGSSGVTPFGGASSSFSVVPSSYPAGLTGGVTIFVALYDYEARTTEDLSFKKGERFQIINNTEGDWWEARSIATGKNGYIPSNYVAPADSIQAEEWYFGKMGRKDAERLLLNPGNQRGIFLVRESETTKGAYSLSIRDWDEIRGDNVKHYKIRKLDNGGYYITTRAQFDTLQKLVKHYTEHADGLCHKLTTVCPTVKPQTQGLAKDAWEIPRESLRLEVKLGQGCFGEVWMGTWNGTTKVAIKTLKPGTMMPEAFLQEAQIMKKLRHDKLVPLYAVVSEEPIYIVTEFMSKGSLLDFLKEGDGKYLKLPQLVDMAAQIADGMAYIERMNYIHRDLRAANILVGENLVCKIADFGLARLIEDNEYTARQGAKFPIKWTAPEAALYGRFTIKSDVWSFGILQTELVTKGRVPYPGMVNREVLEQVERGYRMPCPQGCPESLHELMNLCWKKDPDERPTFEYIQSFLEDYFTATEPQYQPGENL
T3 sequence (P09619 33-1106, species assumed): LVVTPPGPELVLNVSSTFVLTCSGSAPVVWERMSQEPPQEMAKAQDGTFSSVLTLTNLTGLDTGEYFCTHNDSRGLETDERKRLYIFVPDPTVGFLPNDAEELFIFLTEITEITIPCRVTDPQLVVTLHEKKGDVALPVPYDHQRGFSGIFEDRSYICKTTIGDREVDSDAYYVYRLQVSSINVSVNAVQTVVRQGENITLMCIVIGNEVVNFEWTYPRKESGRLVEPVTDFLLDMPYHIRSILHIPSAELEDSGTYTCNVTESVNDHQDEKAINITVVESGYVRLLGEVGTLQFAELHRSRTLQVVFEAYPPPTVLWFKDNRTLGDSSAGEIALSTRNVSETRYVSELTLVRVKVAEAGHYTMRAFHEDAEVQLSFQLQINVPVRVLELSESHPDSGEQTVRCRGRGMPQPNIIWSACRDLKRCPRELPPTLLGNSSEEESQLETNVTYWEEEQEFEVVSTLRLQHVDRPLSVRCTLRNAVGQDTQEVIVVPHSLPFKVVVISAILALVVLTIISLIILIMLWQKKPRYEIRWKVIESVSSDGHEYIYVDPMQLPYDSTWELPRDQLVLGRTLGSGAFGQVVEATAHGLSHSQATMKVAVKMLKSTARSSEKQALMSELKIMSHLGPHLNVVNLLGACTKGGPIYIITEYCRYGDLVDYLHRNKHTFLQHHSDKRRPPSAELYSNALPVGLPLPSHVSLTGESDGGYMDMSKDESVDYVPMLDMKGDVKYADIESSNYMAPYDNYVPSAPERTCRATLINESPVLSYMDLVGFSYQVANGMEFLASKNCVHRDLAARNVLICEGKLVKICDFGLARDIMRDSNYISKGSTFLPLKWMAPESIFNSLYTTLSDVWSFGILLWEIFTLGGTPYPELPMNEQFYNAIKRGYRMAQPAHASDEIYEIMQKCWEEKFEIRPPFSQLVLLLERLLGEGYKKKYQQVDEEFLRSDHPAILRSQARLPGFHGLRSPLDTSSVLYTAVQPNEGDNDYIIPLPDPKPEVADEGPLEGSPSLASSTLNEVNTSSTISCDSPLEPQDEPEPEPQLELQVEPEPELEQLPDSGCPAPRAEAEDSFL
T5 sequence (P12931 whole entry): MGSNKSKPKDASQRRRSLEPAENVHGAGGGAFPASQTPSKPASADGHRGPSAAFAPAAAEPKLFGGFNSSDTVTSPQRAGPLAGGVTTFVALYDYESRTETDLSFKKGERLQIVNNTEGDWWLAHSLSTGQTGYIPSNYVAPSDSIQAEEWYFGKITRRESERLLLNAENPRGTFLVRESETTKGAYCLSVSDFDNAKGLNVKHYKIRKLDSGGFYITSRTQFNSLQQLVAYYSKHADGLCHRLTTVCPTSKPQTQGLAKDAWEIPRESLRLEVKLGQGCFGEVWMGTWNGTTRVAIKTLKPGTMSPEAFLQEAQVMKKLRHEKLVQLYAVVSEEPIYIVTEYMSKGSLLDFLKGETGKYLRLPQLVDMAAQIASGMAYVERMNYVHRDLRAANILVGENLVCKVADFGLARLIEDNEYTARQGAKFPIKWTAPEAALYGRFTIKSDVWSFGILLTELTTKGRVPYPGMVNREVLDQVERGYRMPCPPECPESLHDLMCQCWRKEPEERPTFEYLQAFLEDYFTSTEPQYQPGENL
T2 sequence (P11362 22-822, species assumed): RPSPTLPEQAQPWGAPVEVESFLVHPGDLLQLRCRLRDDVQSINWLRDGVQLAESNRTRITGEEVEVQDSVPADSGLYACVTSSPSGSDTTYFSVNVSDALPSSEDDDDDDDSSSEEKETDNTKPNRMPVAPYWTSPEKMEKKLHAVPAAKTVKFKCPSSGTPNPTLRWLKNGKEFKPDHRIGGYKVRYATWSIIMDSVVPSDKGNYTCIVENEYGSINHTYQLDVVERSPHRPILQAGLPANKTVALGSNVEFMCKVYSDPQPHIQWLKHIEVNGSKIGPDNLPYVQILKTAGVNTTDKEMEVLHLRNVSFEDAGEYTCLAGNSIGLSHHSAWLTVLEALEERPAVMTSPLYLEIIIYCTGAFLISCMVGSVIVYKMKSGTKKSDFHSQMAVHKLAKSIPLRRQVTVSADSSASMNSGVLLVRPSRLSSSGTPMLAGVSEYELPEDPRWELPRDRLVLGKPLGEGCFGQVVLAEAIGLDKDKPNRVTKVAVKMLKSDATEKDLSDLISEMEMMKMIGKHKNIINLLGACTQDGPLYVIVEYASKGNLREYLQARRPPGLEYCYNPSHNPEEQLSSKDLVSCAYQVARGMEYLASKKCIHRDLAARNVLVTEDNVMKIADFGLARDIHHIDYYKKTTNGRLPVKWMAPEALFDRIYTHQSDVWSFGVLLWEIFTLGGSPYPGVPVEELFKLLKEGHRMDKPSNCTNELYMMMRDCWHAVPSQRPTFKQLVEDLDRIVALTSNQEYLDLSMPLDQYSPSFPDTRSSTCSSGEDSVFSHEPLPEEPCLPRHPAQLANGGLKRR
T1 sequence (P35968 20-1356, species assumed): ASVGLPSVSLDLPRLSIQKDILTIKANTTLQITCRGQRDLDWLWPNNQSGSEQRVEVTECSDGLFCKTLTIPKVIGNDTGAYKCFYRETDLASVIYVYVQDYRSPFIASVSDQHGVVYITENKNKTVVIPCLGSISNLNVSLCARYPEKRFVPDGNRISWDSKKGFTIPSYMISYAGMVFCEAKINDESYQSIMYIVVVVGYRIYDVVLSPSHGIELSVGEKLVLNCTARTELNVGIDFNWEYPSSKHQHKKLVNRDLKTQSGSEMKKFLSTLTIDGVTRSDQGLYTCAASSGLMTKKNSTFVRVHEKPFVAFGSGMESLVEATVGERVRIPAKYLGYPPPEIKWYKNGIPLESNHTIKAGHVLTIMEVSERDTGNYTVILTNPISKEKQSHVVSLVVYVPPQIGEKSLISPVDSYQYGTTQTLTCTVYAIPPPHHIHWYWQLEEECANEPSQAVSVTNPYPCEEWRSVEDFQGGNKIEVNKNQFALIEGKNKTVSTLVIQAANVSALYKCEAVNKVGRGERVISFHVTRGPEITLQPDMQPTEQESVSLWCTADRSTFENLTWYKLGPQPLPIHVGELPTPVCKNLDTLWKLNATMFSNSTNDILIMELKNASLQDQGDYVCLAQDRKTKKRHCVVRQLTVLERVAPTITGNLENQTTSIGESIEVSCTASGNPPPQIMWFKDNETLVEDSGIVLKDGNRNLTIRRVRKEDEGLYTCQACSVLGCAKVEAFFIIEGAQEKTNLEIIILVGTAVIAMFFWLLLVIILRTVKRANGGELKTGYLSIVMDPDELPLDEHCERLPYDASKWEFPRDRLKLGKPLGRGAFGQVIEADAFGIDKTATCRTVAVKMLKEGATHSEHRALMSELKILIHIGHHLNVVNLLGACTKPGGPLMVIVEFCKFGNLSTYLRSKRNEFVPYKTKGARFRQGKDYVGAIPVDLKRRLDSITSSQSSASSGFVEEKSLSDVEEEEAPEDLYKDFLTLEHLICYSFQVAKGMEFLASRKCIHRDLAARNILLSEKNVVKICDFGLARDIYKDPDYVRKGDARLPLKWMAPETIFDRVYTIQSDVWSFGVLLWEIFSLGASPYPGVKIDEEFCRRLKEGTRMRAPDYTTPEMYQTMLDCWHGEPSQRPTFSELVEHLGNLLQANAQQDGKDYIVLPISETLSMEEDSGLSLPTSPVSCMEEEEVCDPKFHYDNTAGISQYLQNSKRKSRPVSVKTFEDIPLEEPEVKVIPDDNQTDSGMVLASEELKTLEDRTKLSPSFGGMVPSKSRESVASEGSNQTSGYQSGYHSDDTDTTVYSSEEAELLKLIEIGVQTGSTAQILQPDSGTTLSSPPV

| IC50 (VEGFR2) [nM] | IC50 (FGFR1) [nM] | IC50 (PDGFRb) [nM] | IC50 (human Yes) [nM] | IC50 (human c-Src) [nM] | IC50 (EphB4) [nM] | SMILES |
| --- | --- | --- | --- | --- | --- | --- |
| 907 | 5280 | 51 | 40 | – | – | Clc1cccc(Cl)c1CNc1cnc(Nc2ccc(OCCN3CCCC3)cc2)nc1 |
| > 10000 | > 10000 | 206 | 26 | – | – | O=C(Nc1cnc(Nc2ccc(CCCN3CCCC3)cc2)nc1)c1c(Cl)cccc1Cl |
| – | – | – | – | 216 | – | Cc1c(O)cccc1C(=O)Nc1cnc(Nc2ccc(C(=O)NCCN3CCCC3)cc2)nc1 [XXVII, 3-Hydroxy-2-methyl-N-{2-[4-(2-pyrrolidin-1-yl-ethylcarbamoyl)-phenylamino]-pyrimidin-5-yl}-benzamide] |
| – | – | – | – | 60 | – | O=C(NCCN1CCCC1)c1ccc(Nc2ncc(NC(=O)c3c(Cl)cccc3Cl)cn2)cc1 [XXVIII, 2,6-Dichloro-N-{2-[4-(2-pyrrolidin-1-yl-ethylcarbamoyl)-phenylamino]-pyrimidin-5-yl}-benzamide] |
| – | – | – | – | 1340 | – | O=C(Nc1cc(O)ccc1Cl)c1cnc(Nc2ccc(OCCN3CCCC3)cc2)nc1C(F)(F)F [XXX, 2-[4-(2-Pyrrolidin-1-yl-ethoxy)-phenylamino]-4-trifluoromethyl-pyrimidine-5-carboxylic acid (2-chloro-5-hydroxy-phenyl)-amide] |
| – | – | – | – | > 10000 | – | N#Cc1cccc(C(=O)Nc2cnc(Nc3ccc(S(=O)(=O)CCCN4CCCC4)cc3)nc2)c1 [XXXI, 3-Cyano-N-{2-[4-(3-pyrrolidin-1-yl-propane-1-sulfonyl)-phenylamino]-pyrimidin-5-yl}-benzamide] |
| – | – | – | – | 9.8 | – | O=C(Nc1cnc(Nc2ccc(S(=O)(=O)CCCN3CCCC3)cc2)nc1)c1cc(O)ccc1Cl [XXXII, 2-Chloro-5-hydroxy-N-{2-[4-(3-pyrrolidin-1-yl-propane-1-sulfonyl)-phenylamino]-pyrimidin-5-yl}-benzamide] |
| – | – | – | – | 338 | – | Cc1c(O)cccc1C(=O)Nc1cnc(Nc2ccc(S(=O)(=O)CCCN3CCCC3)cc2)nc1 [XXXIII, 3-Hydroxy-2-methyl-N-{2-[4-(3-pyrrolidin-1-yl-propane-1-sulfonyl)-phenylamino]-pyrimidin-5-yl}-benzamide] |
| – | – | – | – | 119 | – | O=C(Nc1cnc(Nc2ccc(S(=O)(=O)CCCN3CCCC3)cc2)nc1)c1c(Cl)cccc1Cl [XXXIV, 2,6-Dichloro-N-{2-[4-(3-pyrrolidin-1-yl-pronane-1-sulfonyl)-phenylamino]-pyrimidin-5-yl}-benzamide] |
| – | – | – | – | 104 | – | Cc1cccc(C)c1C(=O)Nc1cnc(Nc2ccc(OCCN3CCCC3)cc2)nc1 [XXXIX, N-(2-(4-(2-(Pyrrolidin-1-yl)ethoxy)phenylamino)pyrimidin-5-yl)-2,6-dimethyl-benzamide] |
| – | – | – | – | 462 | – | O=C(Nc1cnc(Nc2ccc(S(=O)(=O)CCCN3CCCC3)cc2)nc1)c1ccc(O)cc1Cl [XXXV, 2-Chloro-4-hydroxy-N-{2-[4-(3-pyrrolidin-1-yl-propane-1-sulfonyl)-phenylamino]-pyrimidin-5-yl}-benzamide] |
| – | – | – | – | 1490 | – | O=C(Nc1cnc(Nc2ccc(S(=O)(=O)CCCN3CCCC3)cc2)nc1)c1cccc(O)c1 [XXXVI, 3-Hydroxy-N-{2-[4-(3-pyrrolidin-1-yl-propane-1-sulfonyl)-phenylamino]-pyrimidin-5-yl}-benzamide] |
| – | – | – | – | 1750 | – | O=C(Nc1cnc(Nc2ccc(S(=O)(=O)CCCN3CCCC3)cc2)nc1)c1cc(Cl)ccc1Cl [XXXVII, 2,5-Dichloro-N-{2-[4-(3-pyrrolidin-1-yl-propane-1-sulfonyl)-phenylamino]-pyrimidin-5-yl}-benzamide] |
| – | – | – | – | 27 | – | O=C(Nc1cnc(Nc2ccc(OCCN3CCCC3)cc2)nc1)c1cc(O)ccc1Cl [XXXVIII, N-(2-(4-(2-(Pyrrolidin-1-yl)ethoxy)phenylamino)pyrimidin-5-yl)-2-chloro-5-hydroxybenzamide] |
| 564 | 20000 | 20 | 26 | – | 200 | O=C(Nc1cnc(Nc2ccc(OCCN3CCCC3)cc2)nc1)c1cc(O)ccc1Cl [drawing 200] |
| 1260 | 7200 | 13 | 10 | – | 109 | O=C(Nc1cnc(Nc2cccc(OCCN3CCCC3)c2)nc1)c1cc(O)ccc1Cl [drawing 201] |
| > 10000 | > 10000 | 181 | 8 | – | 434 | O=C(Nc1cnc(Nc2cccc(OCCN3CCCC3)c2)nc1)c1c(Cl)cccc1Cl [drawing 202] |
| 322 | 5200 | – | 0.8 | – | – | O=C(Nc1cnc(Nc2ccc(S(=O)(=O)NCCN3CCCC3)cc2)nc1)c1cc(O)ccc1Cl [drawing 203] |
| 870 | 1000 | 13 | 3.1 | – | 89 | O=C(NCCN1CCCC1)c1ccc(Nc2ncc(NC(=O)c3cc(O)ccc3Cl)cn2)cn1 [drawing 204] |
| 310 | 5400 | – | 1.9 | – | – | O=C(Nc1cnc(Nc2ccc(C(=O)N3CCNCC3)cc2)nc1)c1cc(O)ccc1Cl [drawing 205] |
| 358 | 7500 | – | 3.7 | – | – | O=C(Nc1cnc(Nc2ccc(S(=O)(=O)CCCN3CCCC3)cc2)nc1)c1cc(O)ccc1Cl [drawing 206] |
| 360 | 9400 | – | 10 | – | – | CN1CCN(C(=O)c2ccc(Nc3ncc(NC(=O)c4cc(O)ccc4Cl)cn3)cc2)CC1 [drawing 207] |
| 257 | 8200 | 6.3 | 4.4 | – | 59 | O=C(NCCN1CCCC1)c1ccc(Nc2ncc(NC(=O)c3cc(O)ccc3Cl)cn2)cc1 [drawing 208] |
| 614 | 2100 | – | 19 | – | – | O=C(NCCN1CCCC1)c1csc(Nc2ncc(NC(=O)c3cc(O)ccc3Cl)cn2)n1 [drawing 209] |
| > 10000 | > 10000 | 138 | 6 | – | 190 | CC(C)N(CCO)C(=O)c1ccc(Nc2ncc(NC(=O)c3cc(O)ccc3Cl)cn2)cc1 [drawing 210] |
| 138 | > 10000 | – | 6 | – | 190 | Clc1cccc(Cl)c1CNc1cnc(Nc2cccc(OCCN3CCCC3)c2)nc1 [drawing 211] |
